Activity calls are given as the source filed them. The rule behind the calls is not given here.
Assays:
[1] = target: Cystic fibrosis transmembrane conductance regulator (Homo sapiens) (UniProt P13569); test: Binding affinity to GST tagged human CFTR PDZ2 domain upto 300 uM
[2] = target: Beta-2 adrenergic receptor (Homo sapiens) (UniProt P07550); test: Binding affinity to GST tagged human beta 2 adrenergic receptor PDZ1 domain upto 300 uM
Beta-2 adrenergic receptor (Homo sapiens), sequence (P07550 whole entry, looked up, the tested form may be a part): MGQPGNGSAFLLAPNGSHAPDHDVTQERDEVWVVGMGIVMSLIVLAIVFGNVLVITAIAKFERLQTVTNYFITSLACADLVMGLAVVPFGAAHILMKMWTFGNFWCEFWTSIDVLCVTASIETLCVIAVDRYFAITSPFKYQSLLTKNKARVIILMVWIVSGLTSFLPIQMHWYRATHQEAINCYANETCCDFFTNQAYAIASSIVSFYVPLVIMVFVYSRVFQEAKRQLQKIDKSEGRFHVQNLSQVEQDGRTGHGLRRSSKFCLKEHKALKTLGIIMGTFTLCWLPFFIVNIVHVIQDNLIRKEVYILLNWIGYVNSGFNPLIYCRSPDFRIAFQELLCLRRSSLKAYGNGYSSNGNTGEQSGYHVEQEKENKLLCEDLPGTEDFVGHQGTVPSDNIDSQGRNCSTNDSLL

Cystic fibrosis transmembrane conductance regulator (Homo sapiens), sequence (P13569 whole entry, looked up, the tested form may be a part): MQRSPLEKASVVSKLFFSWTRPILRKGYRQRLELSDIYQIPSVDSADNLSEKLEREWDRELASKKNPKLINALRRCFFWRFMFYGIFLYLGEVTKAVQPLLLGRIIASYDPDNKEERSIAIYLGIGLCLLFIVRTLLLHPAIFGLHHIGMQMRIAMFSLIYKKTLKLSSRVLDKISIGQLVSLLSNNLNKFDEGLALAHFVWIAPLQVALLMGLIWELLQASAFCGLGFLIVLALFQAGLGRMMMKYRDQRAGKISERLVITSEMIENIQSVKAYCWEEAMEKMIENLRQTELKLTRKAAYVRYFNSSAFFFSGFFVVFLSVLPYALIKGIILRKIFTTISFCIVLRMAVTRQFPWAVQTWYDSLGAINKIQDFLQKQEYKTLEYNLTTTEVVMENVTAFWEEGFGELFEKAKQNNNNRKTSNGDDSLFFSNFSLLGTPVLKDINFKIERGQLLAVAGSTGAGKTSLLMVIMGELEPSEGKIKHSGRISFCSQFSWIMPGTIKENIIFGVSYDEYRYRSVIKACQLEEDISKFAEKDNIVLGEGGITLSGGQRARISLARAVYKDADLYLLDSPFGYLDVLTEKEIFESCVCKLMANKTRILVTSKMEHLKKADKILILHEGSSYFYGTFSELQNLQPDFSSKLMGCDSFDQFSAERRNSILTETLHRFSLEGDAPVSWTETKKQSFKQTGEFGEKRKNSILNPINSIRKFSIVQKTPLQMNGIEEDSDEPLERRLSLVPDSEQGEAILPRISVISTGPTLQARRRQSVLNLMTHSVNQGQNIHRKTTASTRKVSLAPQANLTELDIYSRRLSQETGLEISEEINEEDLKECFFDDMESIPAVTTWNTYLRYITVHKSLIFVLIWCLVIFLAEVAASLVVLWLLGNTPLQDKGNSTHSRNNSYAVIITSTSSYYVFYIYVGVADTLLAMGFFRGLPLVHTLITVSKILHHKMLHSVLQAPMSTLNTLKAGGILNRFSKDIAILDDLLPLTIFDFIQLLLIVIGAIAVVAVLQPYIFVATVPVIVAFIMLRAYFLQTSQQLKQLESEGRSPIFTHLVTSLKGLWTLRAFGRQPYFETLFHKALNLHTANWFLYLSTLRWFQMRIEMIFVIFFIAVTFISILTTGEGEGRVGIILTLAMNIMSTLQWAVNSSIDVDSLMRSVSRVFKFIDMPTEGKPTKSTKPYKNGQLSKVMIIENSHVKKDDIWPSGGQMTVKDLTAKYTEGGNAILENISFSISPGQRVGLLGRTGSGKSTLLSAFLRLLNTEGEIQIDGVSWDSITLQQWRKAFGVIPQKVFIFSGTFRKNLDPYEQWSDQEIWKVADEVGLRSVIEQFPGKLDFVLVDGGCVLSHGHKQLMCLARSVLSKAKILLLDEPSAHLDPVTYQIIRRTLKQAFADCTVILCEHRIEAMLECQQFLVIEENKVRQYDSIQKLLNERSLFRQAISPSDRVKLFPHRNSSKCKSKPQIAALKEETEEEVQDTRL

In the case of `CCCNC(=O)c1[nH]c2cc(C)c(C(=O)O)cc2c1CCc1ccccc1`, the Activity [1] is reported as “inactive” and the Activity [2] is reported as “inactive”.
